Test results reported in US5625061A, “Compounds useful in preparing antiproliferative agents and garft inhibitors” (Agouron Pharmaceuticals, Inc., priority 1995, dated 1997).

Key:
GARFT = details: F. M. Muggia, New Drugs, 1992; cited from earlier work
[1] = system: 6C3HED lymphosarcoma implanted in C3H/He female mice; assay: In vivo antitumor activity, 6C3HED lymphosarcoma; design: species or system mouse; details: intraperitoneal, once daily for nine days, day 11
Procedure: (§1) On day zero, 2 mm^2 trocar fragments of 6C3HED lymphosarcoma were implanted subcutaneously in the axillary region into groups of six C3H/He female mice. Starting on day 1, the test compound was administered intraperitoneally in 40% Encapsin given once daily for nine days. Control animals received identical treatment without test: compound. The percentage inhibition given in Table 5 below was calculated by comparing the mass of the control tumors (receiving diluent only) on day 11 to those of animals receiving test compound.

[2] = system: C3H/BA mammary adenocarcinoma implanted in C3H/He female mice; assay: In vivo antitumor activity, C3H/BA mammary adenocarcinoma; design: species or system mouse; details: intraperitoneal, once daily for nine days, day 14
Procedure: as §1, with “C3H/BA mammary adenocarcinoma” for “6C3HED lymphosarcoma”, “test” for “test:”, “percentage of” for “percentage”, “inhibition” for “inhibition given in Table 5 below”, “14” for “11”

Row | SMILES | GARFT inhibition (in words) (GARFT) | % Inhibition (tumor mass) ([1]; 12.5 mg/kg) | % Inhibition (tumor mass) ([1]; 25 mg/kg) | % Inhibition column: toxicity ([1]; 50 mg/kg) | % Inhibition (tumor mass) ([2]; 5 mg/kg) | % Inhibition (tumor mass) ([2]; 10 mg/kg) | % Inhibition (tumor mass) ([2]; 20 mg/kg)
1 | Nc1nc2c(c(=O)[nH]1)CC(CCc1ccc(C(=O)N[C@@H](CCC(=O)O)C(=O)O)cc1)CN2 (stereo partly shown) [5,10-dideazatetrahydrofolic acid] | specific tight binding inhibitor of GARFT | – | – | – | – | – | –
2 | Nc1nc2c(c(=O)[nH]1)SC(CCc1ccc(C(=O)N[C@@H](CCC(=O)O)C(=O)O)s1)CN2 (stereo partly drawn) [Compound 21, 4-[2-(2-Amino-4-oxo-4,6,7,8-tetrahydro-3H-pyrimido[5,4-6][1,4]thiazin-6-yl)-ethyl]-2,5-thienoylamino -L-glutamic acid] | – | 100% | 100% | toxic | 16% | 84% | 100%
